Data as given in patent publication US10105357B2, “Indication of antibiotic drugs for preparation of cancer inhibition pharmaceutical composition” (LAUNX BIOMEDICAL CO., LTD., priority 2014, dated 2018).
Where two headings read alike, the source gives them in different places.

Legend:
[1] = test system: HI650 (Lung Adenocarcinoma); test: Cell viability analysis, lung cancer HI650; type: cell-based, human; details: Homo sapiens, NCI-H1650, 72 h
[2] = test system: A549 (Lung Adenocarcinoma); test: Cell viability analysis, lung cancer A549; type: cell-based, human; details: Homo sapiens, A549, 72 h
[3] = test system: TSGH-8301 (Urinary Bladder Carcinoma); test: Cell viability analysis, bladder cancer TSGH-8301; type: cell-based, human; details: Homo sapiens, 72 h
[4] = test system: BCC (basal cell carcinoma); test: Cell viability analysis, skin cancer BCC; type: cell-based, human; details: Homo sapiens, 72 h; BCC; repeated experiment; read-out: The results of antibiotic drug inhibiting cancer cell lines (cell viability analysis), BCC
T24 = test: Cell viability analysis, bladder cancer T24; type: cell-based, human; details: Homo sapiens, T-24, 72 h; T24; repeated experiment; read-out: The results of antibiotic drug inhibiting cancer cell lines (cell viability analysis), T24
[5] = test system: MCF7 (Mammary Gland, Adenocarcinoma); test: Cell viability analysis, breast cancer MCF7; type: cell-based, human; details: Homo sapiens, MCF7, 72 h
cancer cell lines = test: Cell viability analysis (WST-1) on cancer cell lines; type: cell-based, human; details: drug 10 μM, 72 hours, WST-1; Table 3
[6] = test system: SAS (Tongue squamous cell carcinoma); test: Cell viability analysis, tongue cancer SAS; type: cell-based, human; details: Homo sapiens, 72 h; SAS; repeated experiment; read-out: The results of antibiotic drug inhibiting cancer cell lines (cell viability analysis), SAS
[7] = test system: HCT116 (p53+) (Colorectal Carcinoma)
NIH: OVCAR-3 = test: Cell viability analysis, ovarian cancer NIH: OVCAR-3; type: cell-based, human; details: Homo sapiens, 72 h; NIH-OVCAR-3; repeated experiment; read-out: The results of antibiotic drug inhibiting cancer cell lines (cell viability analysis), NIH-OVCAR-3
[8] = test system: HeLa (Cervix Adenocarcinoma); test: Cell viability analysis, cervical cancer HeLa; type: cell-based, human; details: Homo sapiens, HeLa, 72 h, HeLa
[9] = test system: Hep3B (hepatocellular carcinoma); test: Cell viability analysis, hepatic cancer Hep3B; type: cell-based, human; details: Homo sapiens, 72 h; Hep3B; repeated experiment; read-out: The results of antibiotic drug inhibiting cancer cell lines (cell viability analysis), Hep3B
TOV-21G = test: Cell viability analysis, ovarian cancer TOV-21G; type: cell-based, human; details: Homo sapiens, TOV21G, 72 h; TOV-21G; repeated experiment; read-out: The results of antibiotic drug inhibiting cancer cell lines (cell viability analysis), TOV-21G
[10] = test system: C-33A (Cervical carcinoma); test: Cell viability analysis, cervical cancer C-33A; type: cell-based, human; details: Homo sapiens, 72 h; C-33A; repeated experiment; read-out: The results of antibiotic drug inhibiting cancer cell lines (cell viability analysis), C-33A
[11] = test system: MKN-45 (Gastric Adenocarcinoma); test: Cell viability analysis, gastric cancer MKN-45; type: cell-based, human; details: Homo sapiens, MKN-45, 72 h
U-2OS = test: Cell viability analysis, osteosarcoma U-2OS; type: cell-based, human; details: Homo sapiens, 72 h; U2OS; repeated experiment; read-out: The results of antibiotic drug inhibiting cancer cell lines (cell viability analysis), U2OS
[12] = test system: 786-O (Renal adenocarcinoma); test: Cell viability analysis, renal cancer 786-O; type: cell-based, human; details: Homo sapiens, 786-0, 72 h; 786-O; repeated experiment; read-out: The results of antibiotic drug inhibiting cancer cell lines (cell viability analysis), 786-O
[13] = test system: HL-60 (Acute Promyelocytic Leukemia); test: Cell viability analysis, leukemia HL-60; type: cell-based, human; details: Homo sapiens, HL-60, 72 h, drug 10 μM, 72 hours, WST-1, OD450 nm; read-out: cell viability (survival rate), HL-60
[14] = test system: MDA-MB-231 (Mammary Gland, Adenocarcinoma); test: Cell viability analysis, breast cancer MDA-MB-231; type: cell-based, human; details: Homo sapiens, MDA-MB-231, 72 h; MDA-MB231; repeated experiment; read-out: The results of antibiotic drug inhibiting cancer cell lines (cell viability analysis), MDA-MB231
[15] = test system: A375 (Amelanotic Melanoma); test: Cell viability analysis, skin cancer A375; type: cell-based, human; details: Homo sapiens, A-375, 72 h
[16] = test system: HepG2 (Hepatocellular Carcinoma); test: Cell viability analysis, hepatic cancer HepG2; type: cell-based, human; details: Homo sapiens, HepG2, 72 h
AsPC-1 = test: Cell viability analysis, pancreatic cancer AsPC-1; type: cell-based, human; details: Homo sapiens, ASPC1, 72 h; AsPC-1; repeated experiment; read-out: The results of antibiotic drug inhibiting cancer cell lines (cell viability analysis), AsPC-1
[17] = test system: LoVo (Colorectal Adenocarcinoma); test: Cell viability analysis, colon cancer LoVo; type: cell-based, human; details: Homo sapiens, LoVo, 72 h
[18] = test system: AGS (Gastric Adenocarcinoma); test: Cell viability analysis, gastric cancer AGS; type: cell-based, human; details: Homo sapiens, 72 h

NC(=O)N/N=C/c1ccc([N+](=O)[O-])o1 [Nitrofurazone (Nitrofural), Nitrofurazone]
viability at 10 µM ([1]; H1650, repeated experiment, read-out: The results of antibiotic drug inhibiting cancer cell lines (cell viability analysis), H1650): 67.3% | viability at 10 µM ([1]; drug 10 μM, 72 hours, WST-1, OD450 nm, read-out: cell viability (survival rate), H1650): 61.1% | viability at 10 µM ([2]; A549, repeated experiment, read-out: The results of antibiotic drug inhibiting cancer cell lines (cell viability analysis), A549): 114% | viability at 10 µM ([2]; drug 10 μM, 72 hours, WST-1, OD450 nm, read-out: cell viability (survival rate), A549): 44.3% | viability at 10 µM ([3]; TSGH-8301, repeated experiment, read-out: The results of antibiotic drug inhibiting cancer cell lines (cell viability analysis), TSGH-8301): 83.9% | viability at 10 µM ([3]; drug 10 μM, 72 hours, WST-1, OD450 nm, read-out: cell viability (survival rate), TSGH): 32.5% | viability at 10 µM [4]: 93% | viability at 10 µM (T24): 87.4% | viability at 10 µM ([5]; MCF-7, repeated experiment, read-out: The results of antibiotic drug inhibiting cancer cell lines (cell viability analysis), MCF-7): 107% | viability at 10 µM ([5]; drug 10 μM, 72 hours, WST-1, OD450 nm, read-out: cell viability (survival rate), MCF7): 35.3% | inhibition effect on different cancer cell lines (cancer cell lines): significant inhibition effect | viability at 10 µM [6]: 92.3% | viability [7]: 110% | viability at 10 µM (NIH: OVCAR-3): 99.5% | viability at 10 µM ([8]; repeated experiment, read-out: The results of antibiotic drug inhibiting cancer cell lines (cell viability analysis), HeLa): 51.2% | viability at 10 µM ([8]; drug 10 μM, 72 hours, WST-1, OD450 nm, read-out: cell viability (survival rate), HeLa): 55.4% | viability at 10 µM [9]: 95.3% | viability at 10 µM (TOV-21G): 95.7% | viability at 10 µM [10]: 83.2% | viability at 10 µM ([11]; MKN-45, repeated experiment, read-out: The results of antibiotic drug inhibiting cancer cell lines (cell viability analysis), MKN-45): 86.8% | viability at 10 µM ([11]; drug 10 μM, 72 hours, WST-1, OD450 nm, read-out: cell viability (survival rate), MKN-45): 42% | viability at 10 µM (U-2OS): 92.4% | viability at 10 µM [12]: 90% | viability at 10 µM [13]: 85.6% | viability at 10 µM [14]: 84% | viability at 10 µM ([15]; A375, repeated experiment, read-out: The results of antibiotic drug inhibiting cancer cell lines (cell viability analysis), A375): 94.7% | viability at 10 µM ([15]; drug 10 μM, 72 hours, WST-1, OD450 nm, read-out: cell viability (survival rate), A375): 54.9% | viability at 10 µM ([16]; HepG2, repeated experiment, read-out: The results of antibiotic drug inhibiting cancer cell lines (cell viability analysis), HepG2): 95.4% | viability at 10 µM ([16]; drug 10 μM, 72 hours, WST-1, OD450 nm, read-out: cell viability (survival rate), HepG2): 82.4% | viability at 10 µM (AsPC-1): 76.7% | viability at 10 µM ([17]; read-out: The results of antibiotic drug inhibiting cancer cell lines (cell viability analysis), LoVo, repeated experiment): 84.8% | viability at 10 µM ([17]; read-out: cell viability (survival rate), LoVo, drug 10 μM, 72 hours, WST-1, OD450 nm): 64.9% | viability at 10 µM ([18]; AGS, repeated experiment, read-out: The results of antibiotic drug inhibiting cancer cell lines (cell viability analysis), AGS): 88.2% | viability at 10 µM ([18]; drug 10 μM, 72 hours, WST-1, OD450 nm, read-out: cell viability (survival rate), AGS): 28%
